Measurements from patent publication US6030942A, “Peptides peptide analogs peptidomimetics and other small molecules useful for inhibiting the activity of ribonucleotide reductase” (The Trustees of the University of Pennsylvania, priority 1998, dated 2000).
pIC50: −log10 of the molar value. Ends that are not written are not given here.

How the values were obtained:
[1] = target: T1, mammalian ribonucleotide reductase (Bos taurus, UniProt Q32LP1); test: Peptide inhibition of mammalian ribonucleotide reductase activity; format: biochemical; details: for % RI (relative inhibitory potency, (IC50 AcFTLDADF)/(IC50 peptide analog)) / pIC50 / Fold decrease in RI relative to N-AcFTLDADF: Table 8; for % RI (relative inhibitory potency, (IC50 AcFTLDADF)/(IC50 peptide analog)): mean and average deviation of 2-3 determinations, others single; for pIC50: Dixon plots of 4-6 concentration points, ranges are two independent determinations, read-out: IC50
T1 sequence (Q32LP1 1-791): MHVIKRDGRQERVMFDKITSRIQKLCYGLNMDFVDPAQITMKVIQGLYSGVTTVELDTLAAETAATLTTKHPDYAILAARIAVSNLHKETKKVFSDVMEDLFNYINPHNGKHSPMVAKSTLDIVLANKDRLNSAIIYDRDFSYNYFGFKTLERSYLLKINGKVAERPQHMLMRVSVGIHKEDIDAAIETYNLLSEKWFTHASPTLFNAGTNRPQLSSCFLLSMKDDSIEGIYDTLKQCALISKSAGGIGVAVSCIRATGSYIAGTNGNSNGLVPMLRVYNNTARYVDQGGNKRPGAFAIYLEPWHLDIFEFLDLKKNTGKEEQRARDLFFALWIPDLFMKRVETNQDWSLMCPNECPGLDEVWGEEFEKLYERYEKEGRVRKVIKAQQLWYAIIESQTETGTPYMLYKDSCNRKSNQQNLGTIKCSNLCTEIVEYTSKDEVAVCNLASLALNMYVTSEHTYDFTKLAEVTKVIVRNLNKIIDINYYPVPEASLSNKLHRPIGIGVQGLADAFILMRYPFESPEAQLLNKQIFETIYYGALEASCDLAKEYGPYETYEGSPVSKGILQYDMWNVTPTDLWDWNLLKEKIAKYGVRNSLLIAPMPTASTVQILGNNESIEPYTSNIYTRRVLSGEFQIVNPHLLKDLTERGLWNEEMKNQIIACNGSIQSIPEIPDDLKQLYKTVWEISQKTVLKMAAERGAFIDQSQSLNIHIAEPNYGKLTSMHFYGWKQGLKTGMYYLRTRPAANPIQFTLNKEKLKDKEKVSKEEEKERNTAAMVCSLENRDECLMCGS
Source text: Standard assays of RR activity used in the studies presented herein involve the conversion of [^3 H]-ribonucleoside diphosphate (NDP) to [^3 H]-deoxyribonucleoside diphosphate (dNDP), using dithiothreitol as the external reductant.
All three methods yielded acceptable results, with the following limitations. Method 1 is useful for the assay of CDP to dCDP and ADP to dADP conversions, but is not useful for the assay of GDP reduction. It is also sensitive to large changes in the nucleotide composition of the assay medium. […] Method 2 is the easiest to perform on purified enzymes, and can be used with all four NDPs as substrates, but is difficult to use with crude enzyme, largely because contaminating phosphatase activities can skew results. Method 3 is usable with all four NDPs, but is also somewhat sensitive to large changes in the nucleotide composition of the assay medium and requires column separation at 4° C.

mouse R1 = target: T2, mouse R1 (Mus musculus, UniProt P07742); details: cited from earlier work
T2 construct: made in house; host or cells: R1: Hi5 or Sf9 insect cells (baculovirus); R2: E. coli
T2 sequence (P07742 1-792): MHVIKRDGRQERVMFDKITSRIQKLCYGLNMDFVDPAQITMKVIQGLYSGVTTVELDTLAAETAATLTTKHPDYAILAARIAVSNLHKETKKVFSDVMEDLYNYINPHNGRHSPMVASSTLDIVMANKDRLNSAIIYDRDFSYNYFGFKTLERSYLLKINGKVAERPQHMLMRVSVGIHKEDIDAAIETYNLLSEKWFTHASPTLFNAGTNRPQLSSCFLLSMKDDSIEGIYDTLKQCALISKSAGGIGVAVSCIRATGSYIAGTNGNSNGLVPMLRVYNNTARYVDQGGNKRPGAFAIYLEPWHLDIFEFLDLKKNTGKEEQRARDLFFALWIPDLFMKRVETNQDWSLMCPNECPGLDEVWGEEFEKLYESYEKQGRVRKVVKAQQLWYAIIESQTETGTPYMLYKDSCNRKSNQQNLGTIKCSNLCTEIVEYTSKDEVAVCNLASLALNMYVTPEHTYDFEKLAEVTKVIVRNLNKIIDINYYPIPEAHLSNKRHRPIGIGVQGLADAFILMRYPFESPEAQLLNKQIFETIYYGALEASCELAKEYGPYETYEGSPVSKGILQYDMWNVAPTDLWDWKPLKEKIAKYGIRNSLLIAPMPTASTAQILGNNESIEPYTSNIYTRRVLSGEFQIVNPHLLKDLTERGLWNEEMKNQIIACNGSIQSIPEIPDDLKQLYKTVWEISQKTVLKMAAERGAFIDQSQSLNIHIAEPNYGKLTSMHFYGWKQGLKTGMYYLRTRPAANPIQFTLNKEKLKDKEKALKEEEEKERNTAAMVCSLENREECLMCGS

[2] = target: S. cerevisiae ribonucleotide reductase (Saccharomyces cerevisiae, UniProt P21524); test: Peptide inhibition of S. cerevisiae ribonucleotide reductase activity; format: biochemical; details: Table 9; read-out: IC50, Yeast RR
[3] = target: T1, mammalian ribonucleotide reductase; details: cited from earlier work
E. coli RR = target: T3, E. coli RR (Escherichia coli, UniProt P00452); details: cited from earlier work
T3 sequence (P00452 whole entry, looked up): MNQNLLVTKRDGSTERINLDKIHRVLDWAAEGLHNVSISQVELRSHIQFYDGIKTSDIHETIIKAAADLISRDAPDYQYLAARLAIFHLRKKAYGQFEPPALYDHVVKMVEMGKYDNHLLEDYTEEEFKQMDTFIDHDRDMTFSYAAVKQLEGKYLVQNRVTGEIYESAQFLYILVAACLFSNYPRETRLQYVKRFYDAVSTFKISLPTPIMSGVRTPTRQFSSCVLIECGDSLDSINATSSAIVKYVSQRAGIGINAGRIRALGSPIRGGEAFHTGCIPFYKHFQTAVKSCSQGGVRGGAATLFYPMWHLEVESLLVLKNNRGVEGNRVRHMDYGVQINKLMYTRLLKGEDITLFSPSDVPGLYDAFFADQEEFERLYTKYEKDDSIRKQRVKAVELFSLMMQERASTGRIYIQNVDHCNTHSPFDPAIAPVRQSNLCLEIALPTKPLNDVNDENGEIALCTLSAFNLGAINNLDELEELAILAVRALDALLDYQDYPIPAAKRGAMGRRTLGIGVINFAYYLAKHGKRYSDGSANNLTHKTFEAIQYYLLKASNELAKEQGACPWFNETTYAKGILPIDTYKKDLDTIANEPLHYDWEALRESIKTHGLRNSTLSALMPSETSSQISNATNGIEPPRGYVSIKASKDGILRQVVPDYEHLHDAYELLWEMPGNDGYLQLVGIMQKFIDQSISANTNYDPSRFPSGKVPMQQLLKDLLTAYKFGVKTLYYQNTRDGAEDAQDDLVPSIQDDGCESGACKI

Chain of S. cerevisiae ribonucleotide reductase (P21524 whole entry): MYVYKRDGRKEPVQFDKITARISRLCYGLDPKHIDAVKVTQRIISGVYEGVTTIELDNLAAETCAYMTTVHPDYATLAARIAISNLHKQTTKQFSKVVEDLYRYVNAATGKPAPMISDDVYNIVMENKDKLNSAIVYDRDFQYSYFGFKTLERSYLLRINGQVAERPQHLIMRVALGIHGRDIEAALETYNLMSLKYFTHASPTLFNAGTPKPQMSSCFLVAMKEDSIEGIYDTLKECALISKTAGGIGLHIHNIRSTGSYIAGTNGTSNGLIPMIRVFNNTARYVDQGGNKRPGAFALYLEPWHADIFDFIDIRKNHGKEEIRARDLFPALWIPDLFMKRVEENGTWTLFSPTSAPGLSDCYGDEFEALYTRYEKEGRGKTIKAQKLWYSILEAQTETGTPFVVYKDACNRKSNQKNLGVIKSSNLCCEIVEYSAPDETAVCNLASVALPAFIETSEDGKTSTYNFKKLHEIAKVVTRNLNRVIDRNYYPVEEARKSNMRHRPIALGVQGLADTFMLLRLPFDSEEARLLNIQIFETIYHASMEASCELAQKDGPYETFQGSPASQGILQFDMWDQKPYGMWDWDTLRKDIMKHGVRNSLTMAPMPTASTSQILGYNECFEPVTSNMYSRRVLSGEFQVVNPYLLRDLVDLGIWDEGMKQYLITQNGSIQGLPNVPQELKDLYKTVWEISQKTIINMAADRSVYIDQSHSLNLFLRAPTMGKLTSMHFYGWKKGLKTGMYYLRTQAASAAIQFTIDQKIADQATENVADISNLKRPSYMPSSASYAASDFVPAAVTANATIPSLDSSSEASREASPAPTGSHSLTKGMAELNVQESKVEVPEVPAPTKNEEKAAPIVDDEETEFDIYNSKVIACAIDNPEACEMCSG

Substance	% RI (relative inhibitory potency, (IC50 AcFTLDADF)/(IC50 peptide analog)) [1] [%]	pIC50 [1]	other results
Ac-FTLDLDF [Ac-FTLDLDF]	35		
Ac-FTVDADF [Ac-FTVDADF]	35		
Ac-TFNEDF [AcTFNEDF]			pIC50 [2]: 3.22
Acetyl-(p-azido-Phe)-Thr-Leu-Asp-Ala-Asp-Phe [Ac-F(4'-N3)TLDADF]	10		Fold decrease in RI relative to N-AcFTLDADF [1]: five to ten
DDLSNFQL [reference compound]			Inhibition of mRR [3]: does not inhibit mRR; Inhibition of E. coli RR (E. coli RR): inhibits eRR
FA-DAP-C(N)FTLDADF: folate-peptide conjugate: γ-1,5-diaminopentane folate condensate coupled to thiol of NCFTLDADF via sulfo-MBS (not fully specified (residue 2))			RR inhibition compared with AcFTLDADF [1]: comparable to AcFTLDADF
FTLDADF [FTLDADF, Phe-Thr-Leu-Asp-Ala-Asp-Phe]		< 3.40	

Second part, led by results:

% RI (relative inhibitory potency, (IC50 AcFTLDADF)/(IC50 peptide analog)) [1] [%]	pIC50 [1]	Substance	other results
	4.54 to 4.60	Ac-FTLNADF [Ac-FTLNADF, Acetyl-Phe-Thr-Leu-Asn-Ala-Asp-Phe]	
	< 3.40	Ac-LDADF [Ac-LDADF]	
	4.82 to 5.05	Ac-NSFTLDADF	
100		Ac-SFTLDADF	Affinity for mR1 compared with AcFTLDADF (mouse R1): same affinity
7		Ac-YTLDADF [Ac-YTLDADF]	Fold decrease in RI relative to N-AcFTLDADF [1]: five to ten; Fold lower affinity for mR1 than AcFTLDADF (mouse R1): 15 fold
10		Acetyl-(p-amino-Phe)-Thr-Leu-Asp-Ala-Asp-Phe [Ac-F(4'-NH2)TLDADF]	Fold decrease in RI relative to N-AcFTLDADF [1]: five to ten
	4.10	SFTLDADF	
